# Counter-ions that a name gives are not always drawn.
# Assays:
# [1] = Solubility (water and formulation solvents); assay type: physicochemical; conditions: water
# [2] = Nail plate penetration; assay type: in vitro ADME
# [3] = tested on: E. coli; test: Resistance of E. coli mutants selected against the compound (MIC); assay type: cell-based; conditions: E. coli mutants showing resistance to compound vs wildtype
# Description: In an exemplary assay, activity of a representative compound against the editing domain was confirmed. To identify the target of the novel boron-containing antibacterial compound (A1), mutants in E. coli showing resistance to compound (A1) were isolated. […] The leuS gene from the mutants was cloned onto a plasmid and their resistance was confirmed by MIC. The editing domain from these mutants were sequenced and the mutations were all located in the editing domain of this enzyme.
# All MIC testing of bacteria followed the Clinical and Laboratory Standards Institute (CLSI) guidelines for antimicrobial testing of aerobic bacteria (Methods for Dilution Antimicrobial Susceptibility Tests for Bacteria That Grow Aerobically; Approved Standard—Seventh Edition) (M07-A7) and anaerobic bacteria (Methods for Antimicrobial Susceptibility Testing of Anaerobic Bacteria; Approved Standard—Seventh Edition) (M11-A7).
# Compare the minimal inhibitory concentration (MIC) of a tolC Escherichia coli strain bearing a pUC derived plasmid with and without an leuS gene insert.
# If the MIC of the strain bearing the extra copies of leuS is greater than 2-fold more than the control strain then pour LB agar plates with four times the concentration of the MIC of the compound.
# Plate 1×10^10 E. coli on ten plates containing 4×MIC of the compound. […]
Structure (SMILES),solubility [1],penetration of the nail plate [2],other results
OB1OCc2cc(F)ccc21 [compound 1],> 100 µg/mL,–,–
"Cc1cc(C2CCCCC2)n(O)c(=O)c1 [ciclopirox, reference compound]",–,penetrates the nail plate poorly,–
"NCC1OB(O)c2ccccc21 (centres unmarked) [A1, 3-Aminomethyl-3H-benzo[c][1,2]oxaborol-1-ol) hydrochloride]",–,–,fold increase in resistance of E. coli mutants over wildtype [3]: 32-256 fold
OB1OCc2cc(Cl)ccc21 [compound 2],> 100 µg/mL,–,–
Fc1ccc2c(c1)COB2c1ccccc1 [Compound 3],–,penetrates the nail plate poorly,–
